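Method: 48-hour compound exposure of cells in 96-well plates, five concentrations, linear interpolation of endpoints. Definition used: TGI = concentration required for complete inhibition of growth.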 Where a SMILES comes first, the peptide text is derived from it. The star is where a group is joined. Boc = CC(C)(C)OC(=O)*; OBn = c1ccc(CO*)cc1; Bn = c1ccc(C*)cc1
Legend:
Assay in all cases: NCI tumour cell line growth inhibition, 48 h
[1] = system: OVCAR-5 ovarian
[2] = system: SF-295 CNS
[3] = system: UO-31 renal
[4] = system: K-562 leukemia
[5] = system: NCI-H460 lung
[6] = system: HT29 colon
[7] = system: HCT-116 colon
[8] = system: SK-OV-3 ovarian
[9] = system: SF-539 CNS
[10] = system: SR leukemia

Row | SMILES | TGI [1] | TGI [2] | TGI [3] | TGI [4] | TGI [5] | TGI [6] | TGI [7] | TGI [8] | TGI [9] | TGI [10]
1 | CN(CCN(C)Cc1ccc(Cl)c(Cl)c1)CCN1CCCC1 | > 100 µM | > 88.7 µM | 36 µM | 32.2 µM | > 100 µM | > 72 µM | > 57.8 µM | > 100 µM | > 59.7 µM | 
2 | c1ccc(C[P+]2(c3ccccc3)CCCCC2)cc1 | > 100 µM | > 100 µM | > 100 µM | > 100 µM | > 100 µM | > 100 µM | > 100 µM | > 100 µM | > 100 µM | > 100 µM
3 | CC(C)CC(NC(=O)C(CCC(=O)OCc1ccccc1)NC(=O)OC(C)(C)C)C(=O)NC(COCc1ccccc1)C(=O)NC(Cc1ccccc1)C(=O)O (centres undefined) (Boc-E(OBn)LS(Bn)F-OH; configuration not given here) | > 100 µM |  | > 100 µM | > 100 µM | > 100 µM | > 100 µM | > 100 µM |  |  | > 100 µM
4 | COc1cc(C(C)(C)C)c(OC(=O)/C=C/C(=O)O/C=C/[N+](=O)[O-])c(C(C)(C)C)c1 | > 100 µM | > 100 µM | 76.9 µM | > 100 µM | > 100 µM | 56.6 µM | > 100 µM | > 100 µM | > 100 µM | > 100 µM
5 | NC(=O)NC1=NCCC(=O)N1CCc1c[nH]c2ccccc12 | > 100 µM | > 100 µM | 31.8 µM | 32.9 µM | 39.5 µM | 47.3 µM | 26.4 µM | > 100 µM | 30.9 µM | 57.3 µM
6 | CC(C)OCC(O)COc1cc(=O)oc2ccccc12 (centres undefined) | > 100 µM | > 100 µM | > 100 µM | > 100 µM | > 100 µM | > 100 µM | > 100 µM | > 100 µM |  | > 100 µM
7 | O=c1[nH]/c(=C/c2cccs2)c(=O)[nH]/c1=C/c1ccc(OCc2ccccc2)cn1 | > 69.5 µM | 0.119 µM | > 100 µM | 27.4 µM | 3.46 µM | > 100 µM | > 100 µM | 16.1 µM | 12.5 µM | 0.587 µM
8 | C/C(=C/CC[C@](C)(OC1OC(CO)C(O)C(O)C1OC1OC(C)C(O)C(O)C1O)[C@H]1CC[C@]2(C)[C@@H]1CC[C@@H]1[C@@]3(C)CC[C@H](O)C(C)(C)[C@@H]3C[C@H](O)[C@]12C)CO (some centres undefined) | > 100 µM | > 100 µM | > 100 µM | > 100 µM | > 100 µM | > 100 µM | > 100 µM | > 100 µM | > 100 µM | > 100 µM
9 | O=C1CCCn2c3ccccc3c3ccnc1c32 | > 100 µM | > 100 µM | > 100 µM | > 100 µM | > 100 µM | > 56.1 µM | > 100 µM | > 100 µM | > 100 µM | 
10 | Oc1cccc(-c2cc(=S)ss2)c1 | 30.8 µM | 29.5 µM | 28.5 µM | 60.6 µM | 32.8 µM | 55.3 µM | 33.3 µM | 37.7 µM | 35 µM | 11.9 µM
11 | CC1CCC(O)/C=C/C(=O)OC(C)C(O)/C=C/C(=O)O1 (centres undefined) | > 100 µM | > 100 µM | > 100 µM | > 100 µM | > 100 µM | > 100 µM | > 100 µM | > 100 µM | > 100 µM | > 100 µM
12 | COC(CO[Si](C)(C)N[Si](C)(C)OCC(OC)c1ccccc1)c1ccccc1 (centres undefined) | > 100 µM | > 100 µM | > 100 µM | > 100 µM | > 100 µM |  | > 100 µM | > 100 µM |  | > 100 µM
13 | CCOC(=O)n1c2ccccc2c2c(O)c(OC)c3c(c21)C(=O)NC3=O | > 100 µM | > 100 µM | > 100 µM | > 100 µM | > 100 µM | 84.3 µM | 49 µM | > 100 µM | > 100 µM | 87.9 µM
14 | NC(=O)c1ccc(N)nc1 | > 400 µM | > 400 µM | > 400 µM | > 400 µM | > 400 µM | > 229 µM | > 400 µM | > 400 µM | 28.3 µM | > 400 µM
15 | CC12CCC3=C(CSC4=C3CSc3ccccc34)C1=CCCC2=O (centres undefined) | > 100 µM |  | > 100 µM | > 100 µM | > 100 µM | > 100 µM | > 100 µM |  | > 100 µM | > 100 µM
16 | COc1c(Cl)ccc(Cl)c1-c1nnc(-c2c(Cl)c(Cl)c(Cl)c(Cl)c2-c2nc3ccc(C(=O)c4ccccc4)cc3[nH]2)o1 | > 100 µM | 85.7 µM | > 100 µM | > 100 µM |  | > 100 µM | > 100 µM | > 100 µM | 54 µM | > 100 µM
17 | O=c1[nH]nc(Nc2ccccc2)c2nnn(Cc3ccccc3)c12 | > 100 µM | > 100 µM | > 100 µM | > 100 µM | > 100 µM | > 100 µM | > 100 µM |  | > 100 µM | > 100 µM
18 | C=CCCCN1C(=O)C2C3c4ccccc4C(C=O)(c4ccccc43)C2C1=O (centres undefined) | 45.1 µM | 26.1 µM | 26 µM | 17.8 µM | 30.3 µM | 27.5 µM | 14.9 µM | 60.3 µM |  | 18.1 µM
19 | O=C(O)CC(Cc1ccccc1)C(=O)O (centres undefined) | > 100 µM | > 100 µM | > 100 µM | > 100 µM | > 100 µM | > 100 µM | > 100 µM | > 100 µM | > 100 µM | 
20 | COc1cc2[nH]c(=O)[nH]c2c2c(C)c[nH]c12 | > 100 µM | > 100 µM | > 100 µM | > 100 µM | > 100 µM | > 100 µM | > 100 µM | > 100 µM |  | > 100 µM
21 | Nc1nc(-c2ccccc2)cc(-c2ccc(F)cc2)c1-c1ccc(Cl)cc1 | > 100 µM | > 100 µM | > 100 µM | > 100 µM | > 100 µM | > 100 µM | > 100 µM | > 100 µM |  | > 100 µM

Reference: PubChem BioAssay (NCI)
